Measured values from ChEMBL document CHEMBL2074337, “Predicting P-glycoprotein effects on oral absorption: correlation of transport in Caco-2 with drug pharmacokinetics in wild-type and mdr1a(-/-) mice in vivo” (Pharm Res, 2004).

Molecular target: ATP-dependent translocase ABCB1 (Homo sapiens, UniProt P08183)
Experiment: TP_TRANSPORTER: transepithelial transport in Caco 2 cell
Assay type: functional, cell-based

Chain of ATP-dependent translocase ABCB1 (P08183 whole entry): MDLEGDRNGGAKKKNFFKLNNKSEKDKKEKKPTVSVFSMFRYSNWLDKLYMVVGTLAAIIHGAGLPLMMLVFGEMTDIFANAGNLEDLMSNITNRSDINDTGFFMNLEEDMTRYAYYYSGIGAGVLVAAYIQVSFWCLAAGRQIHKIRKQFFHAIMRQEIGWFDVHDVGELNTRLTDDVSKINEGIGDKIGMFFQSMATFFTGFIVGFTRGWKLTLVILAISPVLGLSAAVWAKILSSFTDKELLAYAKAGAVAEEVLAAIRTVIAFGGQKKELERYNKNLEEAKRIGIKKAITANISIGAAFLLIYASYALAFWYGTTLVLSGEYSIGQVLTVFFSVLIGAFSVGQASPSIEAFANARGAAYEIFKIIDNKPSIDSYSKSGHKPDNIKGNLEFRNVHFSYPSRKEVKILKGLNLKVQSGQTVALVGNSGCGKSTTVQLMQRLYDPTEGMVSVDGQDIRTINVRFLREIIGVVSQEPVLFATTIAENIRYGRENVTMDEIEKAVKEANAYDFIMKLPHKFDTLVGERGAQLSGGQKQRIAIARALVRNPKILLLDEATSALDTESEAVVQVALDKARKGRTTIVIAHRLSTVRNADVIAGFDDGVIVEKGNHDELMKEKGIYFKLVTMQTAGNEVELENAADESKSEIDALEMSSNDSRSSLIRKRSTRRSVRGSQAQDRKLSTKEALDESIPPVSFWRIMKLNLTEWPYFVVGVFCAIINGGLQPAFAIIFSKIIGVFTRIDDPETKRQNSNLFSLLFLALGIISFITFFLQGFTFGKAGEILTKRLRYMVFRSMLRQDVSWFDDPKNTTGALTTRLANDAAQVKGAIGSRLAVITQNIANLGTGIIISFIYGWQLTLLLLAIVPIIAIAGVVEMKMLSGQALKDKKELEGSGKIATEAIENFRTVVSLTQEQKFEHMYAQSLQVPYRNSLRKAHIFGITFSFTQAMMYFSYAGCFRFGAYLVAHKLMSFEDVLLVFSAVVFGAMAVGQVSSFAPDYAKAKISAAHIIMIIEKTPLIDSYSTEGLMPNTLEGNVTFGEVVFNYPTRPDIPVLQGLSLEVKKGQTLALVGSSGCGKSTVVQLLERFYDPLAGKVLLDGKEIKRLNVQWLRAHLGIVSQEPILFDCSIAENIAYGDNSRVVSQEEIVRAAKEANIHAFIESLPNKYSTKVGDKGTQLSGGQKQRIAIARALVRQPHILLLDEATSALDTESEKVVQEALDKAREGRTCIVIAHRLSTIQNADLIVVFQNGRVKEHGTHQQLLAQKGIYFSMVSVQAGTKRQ

SMILES | Activity
NS(=O)(=O)N1CCN(C2CN(CC[C@]3(c4ccc(Cl)c(Cl)c4)CCC(=O)N(CC4CC4)C3)C2)CC1 | substrate [+]
C=CCNc1nc(NCC=C)nc(N2CCC(NCC(c3ccc(F)cc3)c3ccc(F)cc3)CC2)n1 | substrate [+]
C[C@H]1O[C@@H](O[C@H]2[C@@H](O)C[C@H](O[C@H]3[C@@H](O)C[C@H](O[C@H]4CC[C@@]5(C)[C@H](CC[C@@H]6[C@@H]5C[C@@H](O)[C@]5(C)[C@@H](C7=CC(=O)OC7)CC[C@]65O)C4)O[C@@H]3C)O[C@@H]2C)C[C@H](O)[C@@H]1O [DIGOXIN] | substrate [+]
CC(=O)O[C@H]1C(=O)[C@@]2(C)[C@H]([C@H](OC(=O)c3ccccc3)[C@]3(O)C[C@H](OC(=O)[C@H](O)[C@@H](NC(=O)c4ccccc4)c4ccccc4)C(C)=C1C3(C)C)[C@]1(OC(C)=O)CO[C@@H]1C[C@@H]2O [PACLITAXEL] | substrate [+]
CC(C)(C)NC(=O)[C@@H]1C[C@@H]2CCCC[C@@H]2CN1C[C@@H](O)[C@H](Cc1ccccc1)NC(=O)[C@H](CC(N)=O)NC(=O)c1ccc2ccccc2n1 [SAQUINAVIR] | substrate [+]
CC[C@@]1(O)C(=O)OCc2c1cc1n(c2=O)Cc2cc3c(CN(C)C)c(O)ccc3nc2-1 [TOPOTECAN] | substrate [+]

Other lines, results leading:

Activity | SMILES
substrate [+] | CO[C@H]1/C=C/O[C@@]2(C)Oc3c(C)c(O)c4c(O)c(c(/C=N/N5CCN(C)CC5)c(O)c4c3C2=O)NC(=O)/C(C)=C\C=C\[C@H](C)[C@H](O)[C@@H](C)[C@@H](O)[C@@H](C)[C@H](OC(C)=O)[C@@H]1C [RIFAMPIN]
substrate [+] | C=CC[C@@H]1/C=C(\C)C[C@H](C)C[C@H](OC)[C@H]2O[C@@](O)(C(=O)C(=O)N3CCCC[C@H]3C(=O)O[C@H](/C(C)=C/[C@@H]3CC[C@@H](O)[C@H](OC)C3)[C@H](C)[C@@H](O)CC1=O)[C@H](C)C[C@@H]2OC [TACROLIMUS ANHYDROUS]
